From patent US20260272907A1, “Therapeutic Tyrosine Kinase Inhibitors for Multiple Sclerosis” (Principia Biopharma Inc., priority 2022, published 2026)

Test system: patients with relapsing multiple sclerosis
Test: Phase 2b dose-finding study: adverse events (TEAEs, SAEs, AESIs), safety population
Conditions: for Adverse event: Accidental overdose / Adverse event: Alanine aminotransferase increased / Adverse event: Alopecia / Adverse event: Back pain / Adverse event: Gastroenteritis / Adverse event: Headache / Adverse event: Muscle spasticity / Adverse event: Nasopharyngitis / Adverse event: Oropharyngeal pain / Adverse event: Peripheral edema / Adverse event: Respiratory tract infection / Adverse event: Upper respiratory tract infection: 12 weeks treatment
[1] = BTKi 5 mg (n = 33), Weeks 1 to 12
[2] = BTKi 15 mg (N = 16), Weeks 1 to 4
[3] = BTKi 15 mg (n = 32), Weeks 1 to 12
[4] = BTKi 30 mg (N = 16), Weeks 1 to 4
[5] = BTKi 30 mg (n = 33), Weeks 1 to 12
[6] = BTKi 60 mg (N = 16), Weeks 1 to 4
[7] = BTKi 60 mg (n = 32), Weeks 1 to 12
[8] = BTKi 5 (N = 32), BTK inhibitor treatment period, safety population
[9] = BTKi 15 (N = 32), BTK inhibitor treatment period, safety population
[10] = BTKi 30 (N = 33), BTK inhibitor treatment period, safety population
[11] = BTKi 60 (N = 33), BTK inhibitor treatment period, safety population

What does the source list for `C=CC(=O)N1CCC[C@@H](n2c(=O)n(-c3ccc(Oc4ccccc4)cc3)c3c(N)nccc32)C1` [the BTK inhibitor, (R)-1-(1-acryloylpiperidin-3-yl)-4-amino-3-(4-phenoxyphenyl)-1H-imidazo[4,5-c]pyridin-2(3H)-one]?
Any treatment-related AE [1]: 5 (15.2) n (%); Serious AE [1]: 0 n (%); AE leading to death [2]: 0; AE leading to study discontinuation [2]: 0; Any AE leading to study treatment discontinuation [2]: 0; Any treatment-related AE [2]: 0; Serious AE [2]: 0; Adverse event: Accidental overdose (BTKi 15 mg (n = 32)): 0%; Adverse event: Alanine aminotransferase increased (BTKi 15 mg (n = 32)): 0%; Adverse event: Alopecia (BTKi 15 mg (n = 32)): 1 (3%); Adverse event: Back pain (BTKi 15 mg (n = 32)): 1 (3%); Adverse event: Gastroenteritis (BTKi 15 mg (n = 32)): 0%; Adverse event: Headache (BTKi 15 mg (n = 32)): 3 (9%); Adverse event: Muscle spasticity (BTKi 15 mg (n = 32)): 0%; Adverse event: Nasopharyngitis (BTKi 15 mg (n = 32)): 0%; Adverse event: Oropharyngeal pain (BTKi 15 mg (n = 32)): 0%; Adverse event: Peripheral edema (BTKi 15 mg (n = 32)): 0%; Adverse event: Respiratory tract infection (BTKi 15 mg (n = 32)): 1 (3%); Adverse event: Upper respiratory tract infection (BTKi 15 mg (n = 32)): 2 (6%); AE leading to death [3]: 0 n (%); AE leading to study discontinuation [3]: 0 n (%); Any AE (4 weeks vs. placebo 12 weeks) [3]: 17 (53.1) n (%); Any AE leading to study treatment discontinuation [3]: 0 n (%); Any treatment-related AE [3]: 1 (3.1) n (%); Serious AE [3]: 0 n (%); AE leading to death [4]: 0; AE leading to study discontinuation [4]: 0; Any AE leading to study treatment discontinuation [4]: 0; Any treatment-related AE [4]: 0; Serious AE [4]: 0; Adverse event: Accidental overdose (BTKi 30 mg (n = 33)): 0%; Adverse event: Alanine aminotransferase increased (BTKi 30 mg (n = 33)): 1 (3%); Adverse event: Alopecia (BTKi 30 mg (n = 33)): 0%; Adverse event: Back pain (BTKi 30 mg (n = 33)): 2 (6%); Adverse event: Gastroenteritis (BTKi 30 mg (n = 33)): 0%; Adverse event: Headache (BTKi 30 mg (n = 33)): 1 (3%); Adverse event: Muscle spasticity (BTKi 30 mg (n = 33)): 1 (3%); Adverse event: Nasopharyngitis (BTKi 30 mg (n = 33)): 1 (3%); Adverse event: Oropharyngeal pain (BTKi 30 mg (n = 33)): 1 (3%); Adverse event: Peripheral edema (BTKi 30 mg (n = 33)): 0%; Adverse event: Respiratory tract infection (BTKi 30 mg (n = 33)): 1 (3%); Adverse event: Upper respiratory tract infection (BTKi 30 mg (n = 33)): 1 (3%); AE leading to death [5]: 0 n (%); AE leading to study discontinuation [5]: 0 n (%); Any AE (4 weeks vs. placebo 12 weeks) [5]: 18 (54.5) n (%); Any AE leading to study treatment discontinuation [5]: 0 n (%); Any treatment-related AE [5]: 4 (12.1) n (%); Serious AE [5]: 0 n (%); AE leading to death [6]: 0; AE leading to study discontinuation [6]: 0; Any AE leading to study treatment discontinuation [6]: 0; Serious AE [6]: 0; Adverse event: Accidental overdose (BTKi 60 mg (n = 32)): 3 (9%); Adverse event: Alanine aminotransferase increased (BTKi 60 mg (n = 32)): 1 (3%); Adverse event: Alopecia (BTKi 60 mg (n = 32)): 1 (3%); Adverse event: Back pain (BTKi 60 mg (n = 32)): 0%; Adverse event: Gastroenteritis (BTKi 60 mg (n = 32)): 2 (6%); Adverse event: Headache (BTKi 60 mg (n = 32)): 4 (13%); Adverse event: Muscle spasticity (BTKi 60 mg (n = 32)): 2 (6%); Adverse event: Nasopharyngitis (BTKi 60 mg (n = 32)): 3 (9%); Adverse event: Oropharyngeal pain (BTKi 60 mg (n = 32)): 1 (3%); Adverse event: Peripheral edema (BTKi 60 mg (n = 32)): 2 (6%); Adverse event: Respiratory tract infection (BTKi 60 mg (n = 32)): 1 (3%); Adverse event: Upper respiratory tract infection (BTKi 60 mg (n = 32)): 1 (3%); AE leading to death [7]: 0 n (%); AE leading to study discontinuation [7]: 0 n (%); Any AE (4 weeks vs. placebo 12 weeks) [7]: 16 (50.0) n (%); Any AE leading to study treatment discontinuation [7]: 0 n (%); Any treatment-related AE [7]: 7 (21.9) n (%); Serious AE [7]: 1 (3.1) n (%); Participants with any TEAE [8]: 16 (50.0) n (%); Participants with any TEAE leading to death [8]: 0 n (%); Participants with any TEAE leading to study treatment discontinuation [8]: 0 n (%); Participants with any severe TEAE [8]: 0 n (%); Participants with any treatment emergent SAE [8]: 0 n (%); Participants with any treatment-related TEAE [8]: 6 (18.8) n (%); Participants with study discontinuation due to any TEAE [8]: 0 n (%); Participants with treatment emergent SAE(s): Any class [8]: 0 n(%); Participants with treatment emergent SAE(s): Multiple sclerosis relapse [8]: 0 n(%); Participants with treatment emergent SAE(s): NERVOUS SYSTEM DISORDERS [8]: 0 n(%); Participants with any TEAE leading to death (BTKi 5 (N = 32), Weeks 1 to 4): 0 n (%); Participants with any TEAE leading to study treatment discontinuation (BTKi 5 (N = 32), Weeks 1 to 4): 0 n (%); Participants with any severe TEAE (BTKi 5 (N = 32), Weeks 1 to 4): 0 n (%); Participants with any treatment emergent SAE (BTKi 5 (N = 32), Weeks 1 to 4): 0 n (%); Participants with study discontinuation due to any TEAE (BTKi 5 (N = 32), Weeks 1 to 4): 0 n (%); Participants with any TEAE [9]: 18 (56.3) n (%); Participants with any TEAE leading to death [9]: 0 n (%); Participants with any TEAE leading to study treatment discontinuation [9]: 0 n (%); Participants with any severe TEAE [9]: 0 n (%); Participants with any treatment emergent SAE [9]: 0 n (%); Participants with any treatment-related TEAE [9]: 3 (9.4) n (%); Participants with study discontinuation due to any TEAE [9]: 0 n (%); Participants with treatment emergent SAE(s): Any class [9]: 0 n(%); Participants with treatment emergent SAE(s): Multiple sclerosis relapse [9]: 0 n(%); Participants with treatment emergent SAE(s): NERVOUS SYSTEM DISORDERS [9]: 0 n(%); Participants with any TEAE leading to death (BTKi 15 (N = 32), Weeks 1 to 4): 0 n (%); Participants with any TEAE leading to study treatment discontinuation (BTKi 15 (N = 32), Weeks 1 to 4): 0 n (%); Participants with any severe TEAE (BTKi 15 (N = 32), Weeks 1 to 4): 0 n (%); Participants with any treatment emergent SAE (BTKi 15 (N = 32), Weeks 1 to 4): 0 n (%); Participants with study discontinuation due to any TEAE (BTKi 15 (N = 32), Weeks 1 to 4): 0 n (%); Participants with any TEAE [10]: 17 (51.5) n (%); Participants with any TEAE leading to death [10]: 0 n (%); Participants with any TEAE leading to study treatment discontinuation [10]: 0 n (%); Participants with any severe TEAE [10]: 1 (3.0) n (%); Participants with any treatment emergent SAE [10]: 1 (3.0) n (%); Participants with any treatment-related TEAE [10]: 4 (12.1) n (%); Participants with study discontinuation due to any TEAE [10]: 0 n (%); Participants with treatment emergent SAE(s): Any class [10]: 1 (3.0) n(%); Participants with treatment emergent SAE(s): Multiple sclerosis relapse [10]: 1 (3.0) n(%); Participants with treatment emergent SAE(s): NERVOUS SYSTEM DISORDERS [10]: 1 (3.0) n(%); Participants with any TEAE leading to death (BTKi 30 (N = 33), Weeks 1 to 4): 0 n (%); Participants with any TEAE leading to study treatment discontinuation (BTKi 30 (N = 33), Weeks 1 to 4): 0 n (%); Participants with any severe TEAE (BTKi 30 (N = 33), Weeks 1 to 4): 0 n (%); Participants with any treatment emergent SAE (BTKi 30 (N = 33), Weeks 1 to 4): 0 n (%); Participants with study discontinuation due to any TEAE (BTKi 30 (N = 33), Weeks 1 to 4): 0 n (%); Participants with any TEAE leading to death [11]: 0 n (%); Participants with any TEAE leading to study treatment discontinuation [11]: 0 n (%); Participants with any severe TEAE [11]: 0 n (%); Participants with any treatment emergent SAE [11]: 0 n (%); Participants with any treatment-related TEAE [11]: 2 (6.1) n (%); Participants with study discontinuation due to any TEAE [11]: 0 n (%); Participants with treatment emergent SAE(s): Any class [11]: 0 n(%); Participants with treatment emergent SAE(s): Multiple sclerosis relapse [11]: 0 n(%); Participants with treatment emergent SAE(s): NERVOUS SYSTEM DISORDERS [11]: 0 n(%); Participants with any TEAE leading to death (BTKi 60 (N = 33), Weeks 1 to 4): 0 n (%); Participants with any TEAE leading to study treatment discontinuation (BTKi 60 (N = 33), Weeks 1 to 4): 0 n (%); Participants with any severe TEAE (BTKi 60 (N = 33), Weeks 1 to 4): 0 n (%); Participants with any treatment emergent SAE (BTKi 60 (N = 33), Weeks 1 to 4): 0 n (%); Participants with study discontinuation due to any TEAE (BTKi 60 (N = 33), Weeks 1 to 4): 0 n (%); AESIs (alanine aminotransferase increased >3×ULN) reported in the study (all dose groups): two; TEAEs leading to permanent treatment discontinuation (all dose groups): no TEAEs leading to permanent treatment discontinuation; Upper respiratory tract infection (TEAE) (in each treatment group (5, 15, 30, 60 mg), Weeks 1 to 4): 1 case; Deaths (whole study, all dose groups): No deaths
